{"source": "ChEMBL document CHEMBL6134827", "about": "“The discovery of novel antimicrobial peptides against drug-resistant bacteria based on fragments fusion strategy” (Eur J Med Chem, 2025)", "key": {"[1]": {"system": "Escherichia coli", "test": "Antimicrobial activity against multidrug resistant Escherichia coli assessed as inhibition of visible microbial growth incubated for 18 hrs by broth microdilution method", "assay_type": "functional"}, "[2]": {"system": "Staphylococcus aureus", "test": "Antimicrobial activity against multidrug resistant Staphylococcus aureus assessed as inhibition of visible microbial growth incubated for 18 hrs by broth microdilution method", "assay_type": "functional"}, "[3]": {"system": "Pseudomonas aeruginosa", "test": "Antimicrobial activity against multidrug resistant Pseudomonas aeruginosa at 1.9 to 500 microg/ml in presence of phosphatidylcholine by checkerboard microdilution assay", "assay_type": "functional, organism-based", "conditions": "dose 1.9-500 µg/ml"}, "[4]": {"test": "Cytotoxicity against human BEAS-2B cells assessed as inhibition of cell growth measured after 24 hrs by CCK-8 assay", "assay_type": "toxicity, cell-based"}, "[5]": {"system": "Pseudomonas aeruginosa", "test": "Antibacterial activity against multidrug resistant Pseudomonas aeruginosa assessed as reduction in bacterial growth at 32 microg/mL measured after 1.5 hrs by bactericidal kinetic assay relative to control", "assay_type": "functional", "set-up": "scale not given: the % may be the effect or the level left", "conditions": "dose 32 µg/ml"}, "[6]": {"system": "Pseudomonas aeruginosa", "test": "Antibacterial activity against multidrug resistant Pseudomonas aeruginosa assessed as reduction in bacterial growth at 32 microg/mL by bactericidal kinetic assay", "assay_type": "functional, organism-based", "conditions": "dose 32.0 µg/ml, time 0.5-4 hrs"}, "[7]": {"system": "Acinetobacter baumannii", "test": "Antimicrobial activity against multidrug resistant Acinetobacter baumannii assessed as inhibition of visible microbial growth incubated for 18 hrs by broth microdilution method", "assay_type": "functional"}, "[8]": {"test": "Toxicity in female C57BL/6 mouse assessed as effect on body weight at 20 mg/kg, ip administered daily and measured for 5 days", "assay_type": "organism-based", "conditions": "in vivo, 120 h, time 5 day"}, "[9]": {"system": "Pseudomonas aeruginosa", "test": "Induction of morphological changes in multidrug resistant Pseudomonas aeruginosa assessed as presence of cellular debris at 16 microg/ml incubated for 1 hrs by SEM analysis", "assay_type": "functional, organism-based", "conditions": "dose 16.0 µg/ml"}, "[10]": {"system": "Cell membrane", "test": "Induction of outer cell membrane permeabilization in multidrug resistant Pseudomonas aeruginosa assessed as increase in fluorescence intensity measured for 12 mins by NPN uptake assay", "assay_type": "subcellular", "conditions": "dose 4-32 µg/ml"}, "[11]": {"system": "Staphylococcus aureus", "test": "Drug resistance, ratio of MIC for multidrug resistant Staphylococcus aureus after 16 passages to MIC for multidrug resistant Staphylococcus aureus after first exposure", "assay_type": "functional"}, "[12]": {"test": "Toxicity in female C57BL/6 mouse assessed as histopathological change in heart at 20 mg/kg, ip administered daily and measured for 5 days by H and E staining based analysis", "assay_type": "organism-based", "conditions": "in vivo, 120 h, time 5 day"}, "[13]": {"test": "Toxicity in female C57BL/6 mouse assessed as histopathological change in liver at 20 mg/kg, ip administered daily and measured for 5 days by H and E staining based analysis", "assay_type": "organism-based", "conditions": "in vivo, 120 h, time 5 day"}, "[14]": {"system": "Pseudomonas aeruginosa", "test": "In vivo antibacterial activity against multidrug resistant Pseudomonas aeruginosa infected in acute peritonitis C57BL/6 mouse model assessed as reduction in bacterial load in lung at 10 to 20 mg/kg, ip measured after 12 hrs", "assay_type": "functional, organism-based", "conditions": "dose 10-20 mg/kg"}, "[15]": {"system": "Staphylococcus aureus", "test": "Antibacterial activity against multidrug resistant Staphylococcus aureus assessed as reduction in bacterial growth at 32 microg/mL by bactericidal kinetic assay", "assay_type": "functional, organism-based", "conditions": "dose 32.0 µg/ml, time 0.5-4 hrs"}, "[16]": {"system": "Cell membrane", "test": "Induction of cytoplasmic membrane depolarization in multidrug resistant Pseudomonas aeruginosa assessed as increase in fluorescence intensity at MIC concentration measured within 1 min by DISC3-5 dye based fluorescence analysis", "assay_type": "subcellular"}, "[17]": {"system": "Pseudomonas aeruginosa", "test": "In vivo antibacterial activity against multidrug resistant Pseudomonas aeruginosa infected in acute peritonitis C57BL/6 mouse model assessed as decrease in TNF-alpha level in serum at 5 to 20 mg/kg, ip measured after 12 hrs by ELISA", "assay_type": "functional, organism-based", "conditions": "dose 5-20 mg/kg"}, "[18]": {"system": "Pseudomonas aeruginosa", "test": "In vivo antibacterial activity against multidrug resistant Pseudomonas aeruginosa infected in acute peritonitis C57BL/6 mouse model assessed as reduction in bacterial load in liver at 10 to 20 mg/kg, ip measured after 12 hrs", "assay_type": "functional, organism-based", "conditions": "dose 10-20 mg/kg"}, "[19]": {"system": "Cell membrane", "test": "Disruption of cell membrane in multidrug resistant Pseudomonas aeruginosa assessed as increase in red fluorescence at 16 microg/mL incubated after 2 hrs by SYTO9/PI double staining based fluorescence confocal microscopic analysis", "assay_type": "subcellular", "conditions": "dose 16.0 µg/ml"}, "[20]": {"system": "Pseudomonas aeruginosa", "test": "In vivo antibacterial activity against multidrug resistant Pseudomonas aeruginosa infected in acute peritonitis C57BL/6 mouse model assessed as reduction in tubular dilation at 5 to 20 mg/kg, ip measured after 12 hrs by H and E staining based analysis", "assay_type": "functional, organism-based", "conditions": "dose 5-20 mg/kg"}, "[21]": {"system": "Staphylococcus aureus", "test": "Induction of morphological changes in multidrug resistant Staphylococcus aureus assessed as effect on cell integrity at 16 microg/ml incubated for 1 hrs by SEM analysis", "assay_type": "functional, organism-based", "conditions": "dose 16.0 µg/ml"}, "[22]": {"test": "Cytotoxicity against HEK293T cells assessed as survival rate at 64 microg/ml measured after 24 hrs by CCK-8 assay relative to control", "assay_type": "toxicity, cell-based, HEK-293T", "conditions": "human, at 64 µg/mL, read-out: Survival"}, "[23]": {"test": "Hemolytic activity in human red blood cell assessed as hemolysis at 128 microg/ml measured after 1 hrs by microplate reader assay relative to control", "assay_type": "toxicity, cell-based, Erythrocyte", "conditions": "red blood cells, at 128 µg/mL, read-out: Activity"}, "[24]": {"system": "Cell membrane", "test": "Induction of outer cell membrane permeabilization in multidrug resistant Pseudomonas aeruginosa assessed as increase in fluorescence intensity at >16 microg/ml measured for 12 mins by NPN uptake assay", "assay_type": "subcellular", "conditions": "dose > 16.0 µg/ml"}, "[25]": {"system": "Staphylococcus aureus", "test": "Induction of morphological changes in multidrug resistant Staphylococcus aureus assessed as surface roughening at 16 microg/ml incubated for 1 hrs by SEM analysis", "assay_type": "functional, organism-based", "conditions": "dose 16.0 µg/ml"}, "[26]": {"system": "Cell membrane", "test": "Induction of cytoplasmic membrane depolarization in multidrug resistant Pseudomonas aeruginosa assessed as increase in fluorescence intensity measured for 12 min by DISC3-5 dye based fluorescence analysis", "assay_type": "subcellular", "conditions": "dose 4-32 µg/ml"}, "[27]": {"system": "Cell membrane", "test": "Disruption of cell membrane in multidrug resistant Staphylococcus aureus assessed as increase in red fluorescence at 16 microg/mL incubated after 2 hrs by SYTO9/PI double staining based fluorescence confocal microscopic analysis", "assay_type": "subcellular", "conditions": "dose 16.0 µg/ml"}, "[28]": {"system": "Pseudomonas aeruginosa", "test": "In vivo antibacterial activity against multidrug resistant Pseudomonas aeruginosa infected in acute peritonitis C57BL/6 mouse model assessed as increase in mouse survival at 5 to 20 mg/kg, ip measured after 12 hrs", "assay_type": "functional, organism-based", "conditions": "dose 5-20 mg/kg"}, "[29]": {"test": "Cytotoxicity against human LO2 cells assessed as survival rate at 64 microg/ml measured after 24 hrs by CCK-8 assay relative to control", "assay_type": "toxicity, cell-based, L02", "conditions": "at 64 µg/mL, read-out: Survival"}, "[30]": {"test": "Cytotoxicity against human BEAS-2B cells assessed as survival rate at 64 microg/ml measured after 24 hrs by CCK-8 assay relative to control", "assay_type": "toxicity, cell-based", "conditions": "at 64 µg/mL, read-out: Survival"}, "[31]": {"test": "Stability in 25% human plasma assessed as compound remaining measured after 24 hrs by RP-HPLC analysis", "assay_type": "ADME, cell-free", "conditions": "25% plasma, read-out: Stability"}, "[32]": {"test": "Hepatotoxicity in female C57BL/6 mouse assessed as change in ALT level at 20 mg/kg, ip administered daily and measured for 5 days", "assay_type": "toxicity, organism-based", "conditions": "in vivo, 120 h, time 5 day"}, "[33]": {"system": "Pseudomonas aeruginosa", "test": "Antimicrobial activity against multidrug resistant Pseudomonas aeruginosa assessed as inhibition of bacterial growth at >=125 microg/ml in presence of lipoteichoic acid by checkerboard microdilution assay", "assay_type": "functional, organism-based", "conditions": "dose >= 125.0 µg/ml"}, "[34]": {"system": "Staphylococcus aureus", "test": "Induction of morphological changes in multidrug resistant Staphylococcus aureus assessed as presence of cellular debris at 16 microg/ml incubated for 1 hrs by SEM analysis", "assay_type": "functional, organism-based", "conditions": "dose 16.0 µg/ml"}, "[35]": {"test": "Toxicity in female C57BL/6 mouse assessed as histopathological change in spleen at 20 mg/kg, ip administered daily and measured for 5 days by H and E staining based analysis", "assay_type": "organism-based", "conditions": "in vivo, 120 h, time 5 day"}, "[36]": {"system": "Staphylococcus aureus", "test": "Antimicrobial activity against Staphylococcus aureus ATCC 29213 assessed as inhibition of visible microbial growth incubated for 18 hrs by broth microdilution method", "assay_type": "functional"}, "[37]": {"system": "Pseudomonas aeruginosa", "test": "Antimicrobial activity against multidrug resistant Pseudomonas aeruginosa assessed as inhibition of visible microbial growth incubated for 18 hrs by broth microdilution method", "assay_type": "functional"}}, "note": "The source made the active and inactive calls. The calls are words filed in the database; no cut-off is given here. Non-standard residues stand in square brackets, D forms with d. Residues, ends and D or L forms follow the SMILES beside them. Dab = NCC[C@H](N)C(=O)O"}
{"compound": "CC(C)C[C@H](NC(=O)CN)C(=O)N[C@@H](CCCNC(=N)N)C(=O)N[C@@H](CCN)C(=O)N[C@@H](Cc1c[nH]c2ccccc12)C(=O)N[C@@H](CC(C)C)C(=O)N[C@@H](CCCNC(=N)N)C(=O)N[C@@H](CCN)C(=O)N[C@@H](Cc1ccccc1)C(=O)N[C@@H](CCN)C(=O)N[C@@H](CCN)C(=O)N[C@@H](Cc1ccccc1)C(=O)N[C@@H](Cc1c[nH]c2ccccc12)C(=O)O", "note": "(H-GLR[Dab]WLR[Dab]F[Dab][Dab]FW-OH)", "values": [{"measurement": "MIC", "setting": "[1]", "value": 4.8, "unit": "µM"}, {"measurement": "MIC", "setting": "[2]", "value": 4.8, "unit": "µM"}, {"measurement": "Activity", "setting": "[3]", "value": "Active"}, {"measurement": "CC50 at 24 h", "setting": "[4]", "value": "> 64", "unit": "µg/mL"}, {"measurement": "Activity", "setting": "[5]", "value": 100, "unit": "%"}, {"measurement": "Activity", "setting": "[6]", "value": "Time-dependent-effect"}, {"measurement": "MIC", "setting": "[7]", "value": 4.8, "unit": "µM"}, {"measurement": "Activity", "setting": "[8]", "value": "Toxic"}, {"measurement": "Activity", "setting": "[9]", "value": "Active"}, {"measurement": "Activity", "setting": "[10]", "value": "Active"}, {"measurement": "Ratio", "setting": "[11]", "value": "<2"}, {"measurement": "Activity", "setting": "[12]", "value": "Non-toxic"}, {"measurement": "Activity", "setting": "[13]", "value": "Non-toxic"}, {"measurement": "Activity", "setting": "[14]", "value": "Active"}, {"measurement": "Activity", "setting": "[15]", "value": "Time-dependent-effect"}, {"measurement": "Activity", "setting": "[16]", "value": "Active; Maximal Depolarization Observed"}, {"measurement": "Activity", "setting": "[17]", "value": "Active"}, {"measurement": "Activity", "setting": "[18]", "value": "Active"}, {"measurement": "Activity", "setting": "[19]", "value": "Active"}, {"measurement": "Activity", "setting": "[20]", "value": "Active"}, {"measurement": "Activity", "setting": "[21]", "value": "Active"}, {"measurement": "viability at 24 h, 64 µg/mL", "setting": "[22]", "value": "> 80", "unit": "%"}, {"measurement": "hemolysis at 1 h, 128 µg/mL", "setting": "[23]", "value": "< 10", "unit": "%"}, {"measurement": "Activity", "setting": "[24]", "value": "Active"}, {"measurement": "Activity", "setting": "[25]", "value": "Active"}, {"measurement": "Activity", "setting": "[26]", "value": "Dose-dependent-effect"}, {"measurement": "Activity", "setting": "[27]", "value": "Active"}, {"measurement": "Activity", "setting": "[28]", "value": "Active"}, {"measurement": "viability at 24 h, 64 µg/mL", "setting": "[29]", "value": "> 80", "unit": "%"}, {"measurement": "viability at 24 h, 64 µg/mL", "setting": "[30]", "value": "> 80", "unit": "%"}, {"measurement": "remaining at 24 h", "setting": "[31]", "value": 40, "unit": "%"}, {"measurement": "Activity", "setting": "[32]", "value": "Non-toxic"}, {"measurement": "Activity", "setting": "[33]", "value": "Active; Modest Inhibition Observed"}, {"measurement": "Activity", "setting": "[34]", "value": "Active"}, {"measurement": "Activity", "setting": "[35]", "value": "Non-toxic"}, {"measurement": "MIC", "setting": "[36]", "value": 4.8, "unit": "µM"}, {"measurement": "MIC", "setting": "[37]", "value": 4.8, "unit": "µM"}]}
